In ChEMBL document CHEMBL4373726, “Novel amides modified rupestonic acid derivatives as anti-influenza virus reagents” (Bioorg Med Chem Lett, 2019):

Tests used:
Influenza A virus = experiment: Antiviral activity against Influenza A virus H1N1 infected in dog MDCK cells assessed as inhibition in virus-induced cytopathic effect incubated for 40 hrs; format: functional, organism-based
[1] = Selectivity index, ratio of TC50 for cytotoxicity against dog MDCK cells to IC50 for antiviral activity against Influenza A virus H1N1 infected in dog MDCK cells; format: toxicity, cell-based; details: read-out: Selectivity Index
Influenza A virus H3N2 = experiment: Antiviral activity against Influenza A virus H3N2 infected in dog MDCK cells assessed as inhibition in virus-induced cytopathic effect incubated for 40 hrs; format: functional, organism-based
Influenza B virus = experiment: Antiviral activity against Influenza B virus infected in MDCK cells assessed as inhibition in virus-induced cytopathic effect incubated for 40 hrs; format: functional, organism-based
[2] = Selectivity index, ratio of TC50 for cytotoxicity against dog MDCK cells to IC50 for antiviral activity against Influenza A virus H3N2 infected in dog MDCK cells; format: toxicity, cell-based; details: read-out: Selectivity Index
[3] = Cytotoxicity against MDCK cells assessed as reduction in cell viability incubated for 48 hrs; format: cell-based, Canis lupus familiaris; details: dog, read-out: TC50
[4] = Selectivity index, ratio of TC50 for cytotoxicity against dog MDCK cells to IC50 for antiviral activity against Influenza B virus infected in dog MDCK cells; format: toxicity, cell-based; details: read-out: Selectivity Index

## C=C(C(=O)OC)[C@@H]1CC[C@H](C)[C@@H]2CC(=O)C(C)=C2C1
Influenza A virus
  IC50: 72.7 µM
[1]
  selectivity ratio: 3
Influenza A virus H3N2
  IC50: > 71.8 µM
Influenza B virus
  IC50: > 71.1 µM

## C=C(C(=O)NCc1ccc(B(O)O)cc1)[C@@H]1CC[C@H](C)[C@@H]2CC(=O)C(C)=C2C1
[2]
  selectivity ratio: 4
[3]
  CC50 at 48 h: 262 µM
Influenza A virus
  IC50: 85.4 µM
[1]
  selectivity ratio: 3.3
Influenza A virus H3N2
  IC50: 65.9 µM
[4]
  selectivity ratio: 3.3
Influenza B virus
  IC50: 80 µM

## C=C(C(=O)Nc1ncc(B(O)O)cn1)[C@@H]1CC[C@H](C)[C@@H]2CC(=O)C(C)=C2C1
[2]
  selectivity ratio: 3.6
[3]
  CC50 at 48 h: 315 µM
Influenza A virus
  IC50: 96 µM
[1]
  selectivity ratio: 3.3
Influenza A virus H3N2
  IC50: 87.4 µM
[4]
  selectivity ratio: 2.4
Influenza B virus
  IC50: 135 µM

## C=C(C(=O)Nc1ccc2c(c1)COB2O)[C@@H]1CC[C@H](C)[C@@H]2CC(=O)C(C)=C2C1
[3]
  CC50 at 48 h: 254 µM
Influenza A virus
  IC50: > 49.1 µM
Influenza A virus H3N2
  IC50: > 49.1 µM
Influenza B virus
  IC50: > 49.1 µM

## C=C(C(=O)NCc1cccc(B(O)O)c1)[C@@H]1CC[C@H](C)[C@@H]2CC(=O)C(C)=C2C1
[2]
  selectivity ratio: 4
[3]
  CC50 at 48 h: 252 µM
Influenza A virus
  IC50: 43.3 µM
[1]
  selectivity ratio: 6
Influenza A virus H3N2
  IC50: 63.5 µM
[4]
  selectivity ratio: 2.8
Influenza B virus
  IC50: 90.3 µM

## C=C(C(=O)OC)[C@@H]1CC[C@H](C)[C@H]2C(=C(C)C(=O)[C@H]2NC(=O)C(C)CCl)C1 (some centres not stated)
[2]
  selectivity ratio: 1.7
[3]
  CC50 at 48 h: 735 µM
Influenza A virus
  IC50: > 422 µM
Influenza A virus H3N2
  IC50: 422 µM
Influenza B virus
  IC50: > 422 µM

## C=C(C(=O)OC)[C@@H]1CC[C@H](C)[C@H]2C(=C(C)C(=O)[C@H]2NS(=O)(=O)c2ccc(F)cc2)C1
[2]
  selectivity ratio: 2.5
[3]
  CC50 at 48 h: 25.1 µM
Influenza A virus
  IC50: 8.1 µM
[1]
  selectivity ratio: 3
Influenza A virus H3N2
  IC50: 10.2 µM
[4]
  selectivity ratio: 1.7
Influenza B virus
  IC50: 14.7 µM

## C=C(C(=O)OC)[C@@H]1CC[C@H](C)[C@H]2C(=C(C)C(=O)[C@H]2NS(C)(=O)=O)C1
[2]
  selectivity ratio: 4.3
[3]
  CC50 at 48 h: 226 µM
Influenza A virus
  IC50: 40.5 µM
[1]
  selectivity ratio: 5.6
Influenza A virus H3N2
  IC50: 52.4 µM
[4]
  selectivity ratio: 5.6
Influenza B virus
  IC50: 40.3 µM

## C=C(C(=O)Nc1ccc(B(O)O)cc1)[C@@H]1CC[C@H](C)[C@@H]2CC(=O)C(C)=C2C1
[3]
  CC50 at 48 h: 939 µM
Influenza A virus
  IC50: > 452 µM
Influenza A virus H3N2
  IC50: > 452 µM
Influenza B virus
  IC50: > 451 µM

## C=C(C(=O)Nc1cccc(B(O)O)c1)[C@@H]1CC[C@H](C)[C@@H]2CC(=O)C(C)=C2C1
[2]
  selectivity ratio: 5.3
[3]
  CC50 at 48 h: 632 µM
Influenza A virus
  IC50: 129 µM
[1]
  selectivity ratio: 4.9
Influenza A virus H3N2
  IC50: 146 µM
[4]
  selectivity ratio: 4.3
Influenza B virus
  IC50: 147 µM

## C=C(C(=O)OC)[C@@H]1CC[C@H](C)[C@H]2C(=C(C)C(=O)[C@H]2NC(=O)c2ccccc2)C1
[3]
  CC50 at 48 h: 84.3 µM
Influenza A virus
  IC50: 38.4 µM
[1]
  selectivity ratio: 2.2
Influenza A virus H3N2
  IC50: > 16.5 µM
[4]
  selectivity ratio: 1.9
Influenza B virus
  IC50: 43.8 µM

## C=C(C(=O)OC)[C@@H]1CC[C@H](C)[C@H]2C(=C(C)C(=O)[C@H]2NC(C)=O)C1
[3]
  CC50 at 48 h: 753 µM
Influenza A virus
  IC50: 174 µM
[1]
  selectivity ratio: 4.9
Influenza A virus H3N2
  IC50: > 175 µM
[4]
  selectivity ratio: 1.7
Influenza B virus
  IC50: 522 µM

## C=C(C(=O)OC)[C@@H]1CC[C@H](C)[C@H]2C(=C(C)C(=O)[C@H]2NC(=O)CNC(=O)c2ccccc2)C1
[3]
  CC50 at 48 h: 488 µM
Influenza A virus
  IC50: 101 µM
[1]
  selectivity ratio: 4.9
Influenza A virus H3N2
  IC50: > 114 µM
Influenza B virus
  IC50: > 114 µM

## C=C(C(=O)OC)[C@@H]1CC[C@H](C)[C@H]2C(=C(C)C(=O)[C@H]2NC(=O)c2ccc(B(O)O)cc2)C1
[3]
  CC50 at 48 h: 188 µM
Influenza A virus
  IC50: 44.6 µM
[1]
  selectivity ratio: 4.3
Influenza A virus H3N2
  IC50: > 44.5 µM
Influenza B virus
  IC50: > 44.2 µM

## C=C(C(=O)OC)[C@@H]1CC[C@H](C)[C@H]2C(=C(C)C(=O)[C@H]2NC(=O)CC#N)C1
[3]
  CC50 at 48 h: 1450 µM
Influenza A virus
  IC50: 485 µM
[1]
  selectivity ratio: 3
Influenza A virus H3N2
  IC50: > 485 µM
[4]
  selectivity ratio: 3
Influenza B virus
  IC50: 484 µM

## C=C(C(=O)OC)[C@@H]1CC[C@H](C)[C@H]2C(=C(C)C(=O)[C@H]2NS(=O)(=O)c2ccc(C)cc2)C1
[3]
  CC50 at 48 h: 61.1 µM
Influenza A virus
  IC50: 14.5 µM
[1]
  selectivity ratio: 4.3
Influenza A virus H3N2
  IC50: > 14.9 µM
[4]
  selectivity ratio: 4.3
Influenza B virus
  IC50: 14.1 µM

## CCOC(=O)C1=C[C@@H](OC(CC)CC)[C@H](NC(C)=O)[C@@H](N)C1 [OSELTAMIVIR]
[2]
  selectivity ratio: 132
[3]
  CC50 at 48 h: 1410 µM
Influenza A virus
  IC50: 15.6 µM
Influenza A virus H3N2
  IC50: 11.3 µM
Influenza B virus
  IC50: > 488 µM

## C=C(C(=O)O)[C@@H]1CC[C@H](C)[C@@H]2CC(=O)C(C)=C2C1 [PECHUELOIC ACID]
[2]
  selectivity ratio: 4.3
[1]
  selectivity ratio: 4.3
[4]
  selectivity ratio: 10

## NC(=O)c1ncn([C@@H]2O[C@H](CO)[C@@H](O)[C@H]2O)n1 [RIBAVIRIN]
[2]
  selectivity ratio: 476
Influenza A virus
  IC50: 8.5 µM
[1]
  selectivity ratio: 363
Influenza A virus H3N2
  IC50: 10.6 µM
[4]
  selectivity ratio: 714
Influenza B virus
  IC50: 8 µM
